Laboratory results from patent publication US7365086B2, “Pramipexole acid addition salts” (Synthon IP Inc., priority 2003, dated 2008).
Where a name gives a salt, the structure may show the parent alone.

How the values were obtained:
[1] = DVS, 25° C.
Method: The hygroscopicity was measured using a Dynamic Vapor Sorption apparatus or DVS (Surface Measurement Systems Ltd, UK) at 25° C. and at various controlled relative humidity conditions from 0 to 90%.
First the relative humidity was changed from 0% to 60% and back to 0% (cycle 1). Subsequently, the relative humidity was raised by steps of 10% until 90% and reduced with steps of 10% until 0% (cycle 2). Finally, the relative humidity was changed to 60% and back to 0% (cycle 3). At each step the sample was conditioned till constant weight.

[2] = Approximate water solubility of pramipexole acid addition salts (saturation in water, shaken overnight, evaporation and weighing); conditions: thermodynamic from solid
Method: In general the acid addition salt was added to 2 ml of water in a test tube (1 ml of water was used for some of the very soluble salts) until a residue remained. The tube was shaken overnight at room temperature. The next morning 1 ml of the clear solution from above the solid residue was removed from the tube. This sample was evaporated and the residue was dried and weighed. In this way the approximate solubility of the salt in the water was determined.

In the case of `CCCN[C@H]1CCc2nc(N)sc2C1` [Pramipexole dihydrochloride monohydrate, pramipexole dihydrochloride monohydrate], the “water uptake relative to dry mass at 60% relative humidity” value ([1]; 60% relative humidity) is reported as “over 1.2%”, the “total water uptake relative to the dry mass in the step from 70% and 80% relative humidity” value ([1]; 70% to 80% relative humidity) is reported as 5% and the solubility [2] is reported as greater than 300 mg/mL.
